Experimental findings from patent US8372878B2, “Aminoguanidines as melanocortin receptor ligands” (Anamar AB, priority 2006, dated 2013) are described below.

In general, Ki refers to a measure of affinity in units of concentration, obtained from inhibition or displacement.

One test addresses MC1 (Homo sapiens, UniProt Q01726). Briefly: Stimulation of cAMP, MC1. It counts as cell-based. On the procedure:
(§1) Test 3. cAMP The stimulation of cAMP was carried out essentially as described by Schiöth et al, Br J Pharmacol 1998; 124; 75-82.

The target of test [1] is T1, MC4 (Homo sapiens, UniProt P32245). Briefly: Stimulation of cAMP, MC4. It counts as cell-based. On the procedure:
as §1

Test [2] deals with T2, MC5 (Homo sapiens, UniProt P33032). The experiment in a line: Stimulation of cAMP, MC5. The class given is cell-based. As to the method: as §1
For another test, the target named is MC1-Receptor (Mus musculus, UniProt Q01727). The experiment in a line: Affinity for the MC1-receptor, binding assay with I125-NDP-αMSH as ligand. To be noted: read-out: Affinity for MC-receptors Ki MC1. As to the method:
Test 1. Affinity for the MC1-Receptor
The binding assay was carried out essentially as described by Lunec et al, Melanoma Res 1992; 2; 5-12, using I^125-NDP-αMSH as ligand.

The target of test [3] is T3, MC3 (Homo sapiens, UniProt P41968). Briefly: Stimulation of cAMP, MC3. It counts as cell-based. On the procedure: as §1
Test [4] deals with T1, MC4. The experiment in a line: Affinity for the MC4-receptors, binding assay with I125-NDP-αMSH as ligand. To be noted: read-out: Affinity for MC-receptors Ki MC4. On the procedure:
(§2) Test 2. Affinity for the MC3-Receptors, the MC4-Receptors and the MC5-Receptors
(§3) The binding assays were carried out essentially as described by Szardenings et al, J Biol Chem 1997; 272; 27943-27948 and Schiöth et al, FEBS Lett 1997; 410; 223-228 using I^125-NDP-αMSH as ligand.

The target of test [5] is T3, MC3. The experiment in a line: Affinity for the MC3-receptors, binding assay with I125-NDP-αMSH as ligand. To be noted: read-out: Affinity for MC-receptors Ki MC3. On the procedure: as §2, §3
Test [6] addresses T2, MC5. The experiment in a line: Affinity for the MC5-receptors, binding assay with I125-NDP-αMSH as ligand. To be noted: read-out: Affinity for MC-receptors Ki MC5. As to the method: as §2, §3

Molecules are shown by their SMILES.

T3 sequence (P41968 whole entry): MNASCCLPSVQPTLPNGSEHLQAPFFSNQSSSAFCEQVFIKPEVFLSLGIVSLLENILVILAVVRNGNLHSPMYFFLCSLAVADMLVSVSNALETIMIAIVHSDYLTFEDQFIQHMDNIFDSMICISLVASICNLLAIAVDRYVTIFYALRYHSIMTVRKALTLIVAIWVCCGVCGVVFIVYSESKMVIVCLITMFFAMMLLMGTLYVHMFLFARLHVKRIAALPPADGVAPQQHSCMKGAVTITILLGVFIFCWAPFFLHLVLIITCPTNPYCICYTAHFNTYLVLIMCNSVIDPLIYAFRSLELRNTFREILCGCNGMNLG
T2 sequence (P33032 whole entry): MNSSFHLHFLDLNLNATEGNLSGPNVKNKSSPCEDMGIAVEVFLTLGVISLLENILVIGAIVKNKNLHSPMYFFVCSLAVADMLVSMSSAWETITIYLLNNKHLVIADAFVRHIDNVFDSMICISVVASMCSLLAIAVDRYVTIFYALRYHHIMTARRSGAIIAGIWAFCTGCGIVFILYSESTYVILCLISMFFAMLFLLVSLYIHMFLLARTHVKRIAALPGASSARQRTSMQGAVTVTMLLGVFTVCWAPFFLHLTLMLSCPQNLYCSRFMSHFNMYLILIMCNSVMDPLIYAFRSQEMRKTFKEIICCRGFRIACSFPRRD
T1 sequence (P32245 whole entry): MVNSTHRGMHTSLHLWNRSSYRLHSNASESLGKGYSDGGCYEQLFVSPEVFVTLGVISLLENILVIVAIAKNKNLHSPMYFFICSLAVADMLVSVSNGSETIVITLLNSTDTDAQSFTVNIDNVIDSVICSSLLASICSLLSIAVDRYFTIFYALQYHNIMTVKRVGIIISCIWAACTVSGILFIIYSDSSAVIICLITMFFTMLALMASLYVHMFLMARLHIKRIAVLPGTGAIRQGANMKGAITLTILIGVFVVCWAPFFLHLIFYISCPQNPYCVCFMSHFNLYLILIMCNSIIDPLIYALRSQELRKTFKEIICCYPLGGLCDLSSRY
MC1-Receptor, sequence (Q01727 whole entry): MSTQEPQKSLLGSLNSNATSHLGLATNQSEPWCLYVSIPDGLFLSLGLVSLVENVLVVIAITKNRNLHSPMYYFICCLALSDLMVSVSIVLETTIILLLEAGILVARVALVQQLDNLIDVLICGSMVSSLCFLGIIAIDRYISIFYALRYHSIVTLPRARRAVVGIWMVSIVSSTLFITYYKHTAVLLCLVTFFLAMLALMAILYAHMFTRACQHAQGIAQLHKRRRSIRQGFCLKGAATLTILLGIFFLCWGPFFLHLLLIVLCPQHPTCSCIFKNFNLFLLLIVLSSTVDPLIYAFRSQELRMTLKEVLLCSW
MC1, sequence (Q01726 whole entry): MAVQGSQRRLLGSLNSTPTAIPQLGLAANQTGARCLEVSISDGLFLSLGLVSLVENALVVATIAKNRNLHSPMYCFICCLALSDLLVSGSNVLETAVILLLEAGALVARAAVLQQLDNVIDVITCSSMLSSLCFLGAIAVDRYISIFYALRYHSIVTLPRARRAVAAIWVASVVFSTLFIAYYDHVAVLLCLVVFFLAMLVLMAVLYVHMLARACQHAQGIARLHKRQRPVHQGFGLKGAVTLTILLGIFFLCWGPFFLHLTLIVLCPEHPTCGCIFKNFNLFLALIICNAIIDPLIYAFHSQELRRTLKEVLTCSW

As for `CCOC(=O)c1cccc(C=NNC(=N)N)c1Cl.O=C(O)C(F)(F)F` [1:3, N-(2-Chloro-(3-ethoxycarbonyl)-benzylideneamino)guanidine trifluoroacetate], the “Influence on cAMP MC1c” value at MC1 was determined as 0. Besides, the “Influence on cAMP MC4c” value on MC4 [1] is listed as 7. At MC5 [2], the “Influence on cAMP MC5c” value was 0. Moreover, the Ki at MC1-Receptor is 3.4 µM. The “Influence on cAMP MC3c” value at MC3 [3] is reported as 0.

Take `CSc1c(Cl)cccc1C=NNC(=N)N.Cl` [Compound 1:1, N-(2-Methylthio-3-chlorobenzylideneamino)guanidine hydrochloride]: the Ki on MC4 [4] was found to be 0.6 µM; on MC3 [5] it was 19.7 µM; on MC1-Receptor, 0.7 µM; on MC5 [6], 19.7 µM. In addition, at MC1, the “Influence on cAMP MC1c” value was determined as 1. In addition, the “Influence on cAMP MC4c” value at MC4 [1] is recorded as 13. Further, the “Influence on cAMP MC5c” value at MC5 [2] was found to be 1. Further, the “Influence on cAMP MC3c” value at MC3 [3] is given as 2.
